Test results reported in publication PMC8621413, “New Antifungal Compound: Impact of Cosolvency, Micellization and Complexation on Solubility and Permeability Processes” (Pharmaceutics, 2021).
Values after ≈ are worked out from the molar mass of the structure shown. Values joined by “and” are separate entries in the source; they are usually repeats but may differ in a detail not shown here. Equal values may be shown once. Read-outs that look alike come from different tables or passages of the source.

Tests used:
[1] = In vitro permeability, Franz diffusion cell, PermeaPad barrier; type: in vitro ADME; details: for Papp at 5 h: read-out: Papp, PermeaPad (PP)
Description: (§1) Permeability experiments were performed using the reverse dialysis set-up adapted to the Franz diffusion cell (PermeGear, Inc., Hellertown, PA, USA). This method was successfully applied by di Cagno et al. for the permeability evaluation of a whole set of diverse drugs. The donor solution of the investigated compound was placed in the lower chamber. The membrane was mounted between the donor and acceptor chambers. At the start of the experiment, the upper (acceptor) compartment was filled with the respective pure buffer. The donor solution was stirred with a magnetic stirrer bar. The samples of 0.5 mL were withdrawn from the receptor solution each 30 min over 5 h and replaced with the same volume of pure buffer. The volume of the donor solution in the lower compartment was 7 mL and the receptor volume was 1 mL. A schematic diagram of the equipment is illustrated in Figure 2.
(§2) Two types of barriers were applied for the permeability evaluation: the regenerated cellulose membrane (RC) with a molecular weight cut off MWCO 12–14 kDa (Standard Grade RC Dialysis Membrane, Flat Width 45 mm) and the PermeaPad (PP) barrier (PHABIOC, Germany, www.permeapad.com, accessed on 20 May 2021). The PermeaPad barrier was used as received from the supplier. The cellulose membrane was pretreated with distilled water for 30 min and the traces of water were removed with filter paper before use. The membrane effective surface area was 0.785 cm^2. Buffer solution pH 2.0 was applied throughout the experiment due to impossibility of the drug detection in the receptor solution at pH 7.4, where S-119 solubility is extremely low. […] The temperature of the system was maintained at 37.0 ± 0.1 °C. The concentrations of the sample solutions were measured using spectrophotometer (Spectramax 190; Molecular devices, Molecular Devices Corporation, California, CA, USA) in 96-well UV black plates (Costar) at λ = 261 nm. The permeation plots were constructed as the amount of the permeated drug over the surface area (dQ/A) versus time (t). Flux (J) was calculated as a slope of permeation plots by the equation:(2) J=dQ/A×dt
(§3) The slope (J) normalized by the concentration of the drug in the donor compartment (C0) represents the apparent permeability coefficient (Papp):(3) Papp=J/C0
(§4) The average value of Papp from at least 3 experiments was taken into consideration.

[2] = cationic species of FCZ in acidic solution; second value, CD not printed (HP-β-CD assumed); cited from earlier work
[3] = cited from earlier work
[4] = donor: pure buffer pH 2.0; cited from earlier work
[5] = cationic species of FCZ in acidic solution; first value, CD not printed (β-CD assumed); cited from earlier work
[6] = In vitro permeability, Franz diffusion cell, regenerated cellulose membrane; type: in vitro ADME; details: for Papp at 5 h: read-out: Papp, Cellulose Membrane (RC)
Description: as §1, §2, §3, §4

[7] = set-up: method as in doi:10.1016/j.molliq.2021.116535; details: cited from earlier work
[8] = Complexation with HP-β-CD (phase solubility, Higuchi and Connors); type: physicochemical; details: for Gibbs free energy of complexation (ΔGC0) / Stability constant (KS) / Complexation efficiency (CE): 25 °C; for Stability constant (KS): S-119/HP-β-CD complex; for Complexation efficiency (CE): S-119/HP-β-CD
Description: (§5) Excess amounts of S-119 were added to buffered aqueous solutions containing increasing concentrations of excipients.
(§6) In order to analyze the information on solubilization, micelle formation and complexation obtained in the present study, the standard Gibbs energy (at 25 °C) of the outlined processes was calculated by the following equations:(7) ΔGS0(Cexc)=−RTlnS2/S20, where ΔGS0(Cexc) —the standard free energy of solubilization—transferring a compound from the aqueous buffer solution to the excipient solution of a defined concentration (Cexc), S20 and S2 —the solubility of a drug in pure buffer and at a defined excipient concentration, respectively; R is the universal gas constant; T is the standard temperature of 25 °C (8) ΔGC^0=−RTlnKs where ΔGC0 is the change of the complexation Gibbs energy, KS is the stability constant of the complexation reaction (9) ΔGm/w0=−RTlnKm/w where ΔGm/w0 is the standard Gibbs energy of the partition between the micelle and water phases, Km/w is the partition coefficient.

[9] = Complexation with β-CD (phase solubility, Higuchi and Connors); type: physicochemical; details: for Stability constant (KS): S-119/β-CD complex; for Stability constant (KS) / Complexation efficiency (CE) / Gibbs free energy of complexation (ΔGC0): 25 °C; for Complexation efficiency (CE): S-119/β-CD
Description: as §5, §6

[10] = cited from earlier work; remark: listed apart in the source
[11] = Complexation with α-CD (phase solubility, Higuchi and Connors); type: physicochemical; details: for Stability constant (KS): S-119/α-CD complex; for Stability constant (KS) / Complexation efficiency (CE) / Gibbs free energy of complexation (ΔGC0): 25 °C; for Complexation efficiency (CE): S-119/α-CD
Description: as §5, §6

[12] = Micellar solubilization by non-ionic surfactants (solubilization capacity, micelle/water partition); details: F127; pH 7.4; 25 °C
Description: Moreover, the increase in the surfactant concentration can reduce the number of hydrogen binding sites available for the association of the compound and surfactant. At that point, the surfactant molecules interact with water, affect its structuring and hinder the interactions with positively charged species. […] To this end, the solubilization capacity (χ) representing the amount of the compound that can be solubilized by one mole of polymer was calculated using the following equation [53]:(4) χ=(S2−S20)/(Csurf−CMC) where S2 and S20 are the total solute solubility at a particular concentration of surfactant solution and the intrinsic solute solubility, respectively; Csurf is the surfactant concentration; CMC is the surfactant critical micelle concentration. All concentrations are expressed in molarity. Taking into account that above the CMC the concentration of surfactant monomers is equal to the CMC, the concentration of micelles can be determined as (Csurf − CMC). The CMC of Brij S20 and F127 were taken from the literature [54, 55, 56, 57]. […] Besides this, a micelle/water molar partition coefficient (Km/w) was derived using the following equation [58]:(5) Km/w=Sm/S20=(S2−S20)/S20
The favorable/unfavorable character of any process can be assessed using Gibbs free energy.

[13] = Phase solubility study: equilibrium solubility of S-119 in buffers with excipients; type: physicochemical; details: for solubility enhancement vs pure buffer: pH 2.0
Description: as §5, §6

[14] = Complexation with O-M-β-CD (phase solubility, Higuchi and Connors); type: physicochemical; details: for Gibbs free energy of complexation (ΔGC0) / Stability constant (KS) / Complexation efficiency (CE): 25 °C; for Stability constant (KS): S-119/O-M-β-CD complex; for Complexation efficiency (CE): S-119/O-M-β-CD
Description: as §5, §6

[15] = pH 2, donor: pure buffer pH 2.0, 37 °C
[16] = donor: 1.5 w/v% 6-O-M-β-CD in buffer pH 2.0, 37 °C
[17] = donor: 1.5 w/v% HP-β-CD in buffer pH 2.0, 37 °C
[18] = donor: 1.5 w/v% β-CD in buffer pH 2.0, 37 °C
[19] = donor: pure buffer pH 2.0, 37 °C
[20] = pH 2, donor: 1.5 w/v% 6-O-M-β-CD in buffer pH 2.0, 37 °C
[21] = pH 2, donor: 1.5 w/v% HP-β-CD in buffer pH 2.0, 37 °C
[22] = pH 2, donor: 1.5 w/v% β-CD in buffer pH 2.0, 37 °C

For `OC(Cn1cncn1)(Cn1cncn1)c1ccc(F)cc1F` [FCZ, fluconazole], the “flux J, PermeaPad (PP)” value ([1]; 5 h, pH 2) is given as 3.50 × 10^−5 µM∙cm^−2∙s^−1, the KS [2] is given as 13.5 M⁻¹ and the solubility growth ([3]; 0.0016 M aqueous β-CD solution) is given as 1.1 fold. For the same compound, the solubility increase ([3]; 0.004 M HP-β-CD) was 1.2 fold, the higher solubility ([3]; 0.08 M aqueous HP-β-CD) was 4 fold and the solubility enhancement ([3]; aqueous 0.02 M β-CD) was 1.84 fold. For the same compound, the “Papp, PermeaPad (PP)” value [4] was “(1.74 ± 0.03) × 10^−5 cm∙s^−1”, the KS [5] was 10.7 M⁻¹ and the “flux J, Cellulose Membrane (RC)” value ([6]; 5 h, pH 2) was 1.31 × 10^−4 µM∙cm^−2∙s^−1. The Papp at 5 h [6, 15] was 49 ×10⁻⁶ cm/s.
For `OC(CN1CCN(CC(O)(Cn2cncn2)c2ccc(F)cc2F)CC1)(Cn1cncn1)c1ccc(F)cc1F` (stereo not drawn) [S-119, 3,3′-(piperazine-1,4-diyl)bis(2-(2,4-difluorophenyl)-1-(1H-1,2,4-triazol-1-yl)propan-2-ol)], the “solubility in aqueous solutions” value ([7]; pH 2.0) is given as 4450 µM (≈ 2490 µg/mL), the “solubility in aqueous solutions” value ([7]; pH 7.4) is given as 40.1 µM (≈ 22.5 µg/mL) and the “phase solubility diagram type (Higuchi and Connors classification)” value (shortened to “phase solubility diagram type”) ([8]; HP-β-CD, both pHs) is given as “AL-type”. For the same compound, the “Gibbs free energy of complexation (ΔGC0)” value ([8]; HP-β-CD, pH 2.0) was -1.57 kcal/mol, the “complex stability relative to FCZ complex” value ([8]; HP-β-CD, pH 7.4) was 52 fold and the “Gibbs free energy of complexation (ΔGC0)” value ([8]; HP-β-CD, pH 7.4) was -4.577 kcal/mol. The “Stability constant (KS)” value ([8]; pH 2.0) was 14.0 ± 0.6 M⁻¹, the “Stability constant (KS)” value ([8]; pH 7.4) was 2261.0 ± 79.0 M⁻¹ and the “Complexation efficiency (CE)” value ([8]; pH 2.0) was 6.2%. For the same compound, the “Complexation efficiency (CE)” value ([8]; pH 7.4) was 9.1%, the “permeability class (classification of di Cagno et al. for PermeaPad)” value ([1]; 1.5 w/v% CDs in donor solution, pH 2.0) was “low-medium permeability class” and the “permeability decrease vs pure buffer” value ([1]; PP barrier, 1.5 w/v% O-M-β-CD donor solution, pH 2.0) was 2.63 fold. The “permeability class (classification of di Cagno et al. for PermeaPad)” value ([1]; buffer pH 2.0) was “highly permeated substance”, the “flux J, PermeaPad (PP)” value [1, 16] was 1.01 × 10^−5 µM∙cm^−2∙s^−1 and the “flux J, PermeaPad (PP)” value [1, 17] was 1.00 × 10^−5 µM∙cm^−2∙s^−1. For the same compound, the “flux J, PermeaPad (PP)” value [1, 18] was 9.93 × 10^−6 µM∙cm^−2∙s^−1, the “flux J, PermeaPad (PP)” value [1, 19] was 2.20 × 10^−5 µM∙cm^−2∙s^−1 and the Papp at 5 h [1, 20] was 5.62 ×10⁻⁶ cm/s. It also gave a Papp at 5 h [1, 21] of 7.81 ×10⁻⁶ cm/s, a Papp at 5 h [1, 22] of 6.12 ×10⁻⁶ cm/s and a Papp at 5 h [1, 15] of 14.8 ×10⁻⁶ cm/s. The “Stability constant (KS)” value ([9]; pH 2.0) was 27.4 ± 1.0 M⁻¹ and 27.4 M⁻¹, the “Stability constant (KS)” value ([9]; pH 7.4) was 4424.9 ± 162.7 M⁻¹ and the “Complexation efficiency (CE)” value ([9]; pH 2.0) was 12.2%. For the same compound, the “Complexation efficiency (CE)” value ([9]; pH 7.4) was 17.7%, the “phase solubility diagram type” value ([9]; β-CD, linear region 0 to 0.003 M CD) was “BS-type” and the “Gibbs free energy of complexation (ΔGC0)” value ([9]; β-CD, pH 2.0) was -1.96 kcal/mol. The “complex stability relative to FCZ complex” value ([9]; β-CD, pH 7.4) was 47 fold, the “Gibbs free energy of complexation (ΔGC0)” value ([9]; β-CD, pH 7.4) was -4.974 kcal/mol and the “logD^oct” value [10] was 1.43. The “Stability constant (KS)” value ([11]; pH 2.0) was 5.0 ± 0.2 M⁻¹ and 5 M⁻¹, the “Stability constant (KS)” value ([11]; pH 7.4) was 304.4 ± 17 M⁻¹ and the “Complexation efficiency (CE)” value ([11]; pH 2.0) was 2.2%. For the same compound, the “Complexation efficiency (CE)” value ([11]; pH 7.4) was 1.2%, the “phase solubility diagram type” value ([11]; α-CD, both pHs) was “AL-type” and the “Gibbs free energy of complexation (ΔGC0)” value ([11]; α-CD, pH 2.0) was -0.956 kcal/mol. For the same compound, the “Gibbs free energy of complexation (ΔGC0)” value ([11]; α-CD, pH 7.4) was -3.387 kcal/mol, the “Gibbs free energy of micelle formation (ΔGm/w0)” value [12] was -6.205 kcal/mol and the “solubility growth vs pure buffer” value ([13]; 0.0015 M β-CD, pH 7.4) was 6.8 fold. For the same compound, the “solubility growth vs pure buffer” value ([13]; 0.01 M HP-β-CD, pH 7.4) was 24 fold, the “solubility growth vs pure buffer” value ([13]; 0.07 M HP-β-CD, pH 7.4) was 151 fold and the “solubility growth vs pure buffer” value ([13]; 20% PVP) was 232 fold. The “solubility enhancement vs pure buffer” value ([13]; 10 w/v% PEG 6000) was 1.45 fold, the “solubility enhancement vs pure buffer” value ([13]; 10 w/v% PEG 35000) was 1.20 fold and the “solubility enhancement vs pure buffer” value ([13]; 10 w/v% PVP) was 1.32 fold. For the same compound, the “growth of solubility vs pure buffer” value ([13]; pH 7.4, 10 w/v% Brij S20) was 199 fold, the “growth of solubility vs pure buffer” value ([13]; pH 7.4, 10 w/v% F-127) was 281 fold and the “extent of the solubilization vs pure buffer” value ([13]; pH 7.4, PEG 6000) was 193 fold. For the same compound, the “extent of the solubilization vs pure buffer” value ([13]; pH 7.4, PVP) was 232 fold, the “phase solubility diagram type” value ([14]; O-M-β-CD, both pHs) was “AL-type” and the “Gibbs free energy of complexation (ΔGC0)” value ([14]; O-M-β-CD, pH 2.0) was -1.74 kcal/mol. For the same compound, the “Gibbs free energy of complexation (ΔGC0)” value ([14]; O-M-β-CD, pH 7.4) was -4.866 kcal/mol, the “Stability constant (KS)” value ([14]; pH 2.0) was 18.7 ± 0.7 M⁻¹ and the “Stability constant (KS)” value ([14]; pH 7.4) was 3693.4 ± 185.3 M⁻¹. For the same compound, the “Complexation efficiency (CE)” value ([14]; pH 2.0) was 8.3%, the “Complexation efficiency (CE)” value ([14]; pH 7.4) was 14.8% and the “permeability decrease vs pure buffer” value ([6]; RC membrane, 1.5 w/v% HP-β-CD donor solution, pH 2.0) was 1.87 fold. The “flux J, Cellulose Membrane (RC)” value [6, 16] was 2.68 × 10^−5 µM∙cm^−2∙s^−1, the “flux J, Cellulose Membrane (RC)” value [6, 17] was 2.21 × 10^−5 µM∙cm^−2∙s^−1 and the “flux J, Cellulose Membrane (RC)” value [6, 18] was 2.90 × 10^−5 µM∙cm^−2∙s^−1. The “flux J, Cellulose Membrane (RC)” value [6, 19] was 3.49 × 10^−5 µM∙cm^−2∙s^−1, the Papp at 5 h [6, 20] was 23.1 ×10⁻⁶ cm/s and the Papp at 5 h [6, 21] was 14.5 ×10⁻⁶ cm/s. The Papp at 5 h [6, 22] was 19.6 ×10⁻⁶ cm/s and the Papp at 5 h [6, 15] was 27.1 ×10⁻⁶ cm/s.
